Laboratory results from ChEMBL document CHEMBL5465560, “Selectivity Literature for EUbOPEN Chemogenomic Library” (2024).
Blank lines part the entries; values can stand above or below the compound they belong to.

How the values were obtained:
[1] = molecular target: T1, Bone morphogenetic protein receptor type-2 (Homo sapiens) (UniProt Q13873); conditions: at 10 µM
T1 sequence (whole entry): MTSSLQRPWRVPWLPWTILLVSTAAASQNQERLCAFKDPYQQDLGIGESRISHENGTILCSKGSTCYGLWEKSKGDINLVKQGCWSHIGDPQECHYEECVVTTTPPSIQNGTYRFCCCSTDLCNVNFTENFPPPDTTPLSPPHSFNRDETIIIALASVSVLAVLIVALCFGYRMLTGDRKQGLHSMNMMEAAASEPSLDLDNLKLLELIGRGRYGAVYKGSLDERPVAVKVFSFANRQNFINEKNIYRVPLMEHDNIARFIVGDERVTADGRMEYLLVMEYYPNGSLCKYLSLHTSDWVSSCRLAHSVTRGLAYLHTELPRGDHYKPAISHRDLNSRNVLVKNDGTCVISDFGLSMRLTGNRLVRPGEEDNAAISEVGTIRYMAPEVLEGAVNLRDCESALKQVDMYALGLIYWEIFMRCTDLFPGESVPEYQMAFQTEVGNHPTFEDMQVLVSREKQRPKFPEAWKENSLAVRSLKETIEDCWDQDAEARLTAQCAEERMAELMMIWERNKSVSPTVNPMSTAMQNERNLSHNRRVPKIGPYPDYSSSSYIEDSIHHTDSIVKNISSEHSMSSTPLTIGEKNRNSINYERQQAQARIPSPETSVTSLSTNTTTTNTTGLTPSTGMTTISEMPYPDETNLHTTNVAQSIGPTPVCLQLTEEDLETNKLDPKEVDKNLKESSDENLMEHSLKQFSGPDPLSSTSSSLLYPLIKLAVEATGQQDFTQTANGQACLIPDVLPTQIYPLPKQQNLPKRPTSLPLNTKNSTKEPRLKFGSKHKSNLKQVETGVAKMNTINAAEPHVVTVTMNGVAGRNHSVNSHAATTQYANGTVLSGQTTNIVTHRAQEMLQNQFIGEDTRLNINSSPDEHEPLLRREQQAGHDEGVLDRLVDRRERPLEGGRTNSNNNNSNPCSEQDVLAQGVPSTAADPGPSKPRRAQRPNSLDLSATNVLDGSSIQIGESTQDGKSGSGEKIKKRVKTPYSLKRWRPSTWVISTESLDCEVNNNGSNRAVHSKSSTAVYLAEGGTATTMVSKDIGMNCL

[2] = molecular target: T2, Mitogen-activated protein kinase kinase kinase 15 (Homo sapiens) (UniProt Q6ZN16); assay: Selectivity interaction (KinomeScan (DiscoverX)) EUB0000595a MAP3K15; conditions: at 10 µM
T2 sequence (whole entry): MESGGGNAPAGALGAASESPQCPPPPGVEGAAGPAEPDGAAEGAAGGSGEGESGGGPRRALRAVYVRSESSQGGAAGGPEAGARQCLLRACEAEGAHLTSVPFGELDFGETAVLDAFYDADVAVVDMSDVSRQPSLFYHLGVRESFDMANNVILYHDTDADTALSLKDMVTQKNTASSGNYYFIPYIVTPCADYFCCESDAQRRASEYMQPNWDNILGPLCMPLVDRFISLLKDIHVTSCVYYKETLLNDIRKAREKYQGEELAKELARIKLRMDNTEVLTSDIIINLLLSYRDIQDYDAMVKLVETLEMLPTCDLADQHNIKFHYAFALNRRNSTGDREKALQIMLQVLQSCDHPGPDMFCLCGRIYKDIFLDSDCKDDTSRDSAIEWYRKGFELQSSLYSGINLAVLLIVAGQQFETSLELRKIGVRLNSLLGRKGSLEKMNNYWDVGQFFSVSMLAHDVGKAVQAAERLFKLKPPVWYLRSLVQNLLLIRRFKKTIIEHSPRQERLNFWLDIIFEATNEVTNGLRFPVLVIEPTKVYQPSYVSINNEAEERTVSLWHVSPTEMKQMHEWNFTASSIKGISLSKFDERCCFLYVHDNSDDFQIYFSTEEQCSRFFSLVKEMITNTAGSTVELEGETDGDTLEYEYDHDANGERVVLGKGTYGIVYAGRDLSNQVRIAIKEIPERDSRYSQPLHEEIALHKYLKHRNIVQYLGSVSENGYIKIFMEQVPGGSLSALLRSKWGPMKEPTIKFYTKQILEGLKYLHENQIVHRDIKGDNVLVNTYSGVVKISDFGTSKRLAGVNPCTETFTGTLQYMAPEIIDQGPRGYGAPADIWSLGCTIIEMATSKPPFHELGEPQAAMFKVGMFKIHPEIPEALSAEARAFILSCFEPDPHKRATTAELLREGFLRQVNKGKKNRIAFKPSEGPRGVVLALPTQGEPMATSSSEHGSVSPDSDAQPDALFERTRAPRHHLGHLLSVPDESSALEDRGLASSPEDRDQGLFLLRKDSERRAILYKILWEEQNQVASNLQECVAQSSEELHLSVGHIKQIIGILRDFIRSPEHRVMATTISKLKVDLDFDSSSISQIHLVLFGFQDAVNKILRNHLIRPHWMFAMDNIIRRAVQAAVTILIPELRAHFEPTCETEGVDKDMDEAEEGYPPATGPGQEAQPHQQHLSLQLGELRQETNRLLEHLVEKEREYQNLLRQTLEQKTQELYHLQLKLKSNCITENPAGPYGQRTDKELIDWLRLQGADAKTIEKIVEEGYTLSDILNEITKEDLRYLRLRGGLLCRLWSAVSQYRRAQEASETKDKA

[3] = molecular target: 5'-AMP-activated protein kinase catalytic subunit alpha-1 (Homo sapiens, UniProt Q13131); assay: Selectivity interaction (KinomeScan (DiscoverX)) EUB0000655a PRKAA1; conditions: at 10 µM
[4] = molecular target: Ribosomal protein S6 kinase alpha-1 (Homo sapiens, UniProt Q15418); assay: Selectivity interaction (KinomeScan (DiscoverX)) EUB0001079a RPS6KA1; conditions: at 1 µM
Ribosomal protein S6 kinase alpha-1, sequence (Q15418 whole entry): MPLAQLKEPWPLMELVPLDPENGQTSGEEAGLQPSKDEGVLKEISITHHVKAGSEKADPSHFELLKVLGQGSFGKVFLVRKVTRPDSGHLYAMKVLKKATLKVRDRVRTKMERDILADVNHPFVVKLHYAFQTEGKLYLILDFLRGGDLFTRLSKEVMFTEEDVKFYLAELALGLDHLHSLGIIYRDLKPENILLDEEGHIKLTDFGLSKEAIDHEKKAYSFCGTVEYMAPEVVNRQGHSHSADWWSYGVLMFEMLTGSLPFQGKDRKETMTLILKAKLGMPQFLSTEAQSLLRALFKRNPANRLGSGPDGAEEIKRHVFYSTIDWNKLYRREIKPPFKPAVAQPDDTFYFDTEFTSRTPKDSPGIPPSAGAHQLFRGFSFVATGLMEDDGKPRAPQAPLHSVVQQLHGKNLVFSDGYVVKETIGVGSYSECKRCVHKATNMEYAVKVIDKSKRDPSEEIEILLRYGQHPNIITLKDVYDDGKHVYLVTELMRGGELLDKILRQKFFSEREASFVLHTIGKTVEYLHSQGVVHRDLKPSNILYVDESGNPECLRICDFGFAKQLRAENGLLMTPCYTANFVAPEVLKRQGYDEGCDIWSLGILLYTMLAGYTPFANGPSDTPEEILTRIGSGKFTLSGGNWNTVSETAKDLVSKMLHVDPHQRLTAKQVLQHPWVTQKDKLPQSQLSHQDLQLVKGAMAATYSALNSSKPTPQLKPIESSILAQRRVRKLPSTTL

5'-AMP-activated protein kinase catalytic subunit alpha-1, sequence (Q13131 whole entry, looked up): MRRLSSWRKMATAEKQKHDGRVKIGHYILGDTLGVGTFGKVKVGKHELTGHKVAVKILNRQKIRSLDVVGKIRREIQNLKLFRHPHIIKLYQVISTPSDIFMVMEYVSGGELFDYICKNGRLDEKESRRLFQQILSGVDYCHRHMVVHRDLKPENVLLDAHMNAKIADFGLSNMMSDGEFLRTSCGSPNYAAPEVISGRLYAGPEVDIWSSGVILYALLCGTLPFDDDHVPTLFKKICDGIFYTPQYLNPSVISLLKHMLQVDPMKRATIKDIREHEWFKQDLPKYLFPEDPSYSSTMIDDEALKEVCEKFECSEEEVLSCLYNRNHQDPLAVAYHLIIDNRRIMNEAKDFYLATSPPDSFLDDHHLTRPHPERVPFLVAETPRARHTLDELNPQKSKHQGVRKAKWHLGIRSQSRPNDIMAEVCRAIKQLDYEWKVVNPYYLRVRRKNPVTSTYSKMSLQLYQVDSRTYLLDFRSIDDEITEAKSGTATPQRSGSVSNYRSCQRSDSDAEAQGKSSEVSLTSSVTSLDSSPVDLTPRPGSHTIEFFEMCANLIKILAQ

% of control [1]: 100%
SMILES: CCN(CC)CCCCNc1ncc2cc(-c3cc(OC)cc(OC)c3)c(NC(=O)NC(C)(C)C)nc2n1

SMILES: COCC(=O)NC/C=C/c1ccc2ncnc(Nc3ccc(Oc4ccc(C)nc4)c(C)c3)c2c1 [CP-724714]
% of control [2]: 100%

SMILES: CN(C)CCOc1ccc(-c2nc(-c3ccncc3)c(-c3ccc4c(c3)CC/C4=N\O)[nH]2)cc1
% of control [3]: 100%

SMILES: Nc1cnc(N2CCc3cc(S(=O)(=O)Nc4c(F)cc(Cl)cc4F)cc(N4CCCC4=O)c32)nc1 [TP-020n]
% of control [4]: 93%
